We go through seven molecules from publication PMC5003785, “An unusual UMP C-5 methylase in nucleoside antibiotic polyoxin biosynthesis” (Protein & Cell, 2016).

The target in data set [1] is T1, SVIThyX2 (Streptomyces viridochromogenes, UniProt D9X6S9).
T1 construct: gene thyX
Put plainly: LC-MS methylation assay. In kind it is biochemical. The conditions noted are these: NADPH, CH2H4folate; 50 mmol/L Tris-HCl pH 8.0.

Data set [2] has as its target PolB from S. cacaoi (UMP C-5 methylase with thymidylate synthase activity) (S. cacaoi). Put plainly: crystal structure; apo-PolB, space group P2(1), two tetramers in the asymmetric unit; 17% PEG4000, 0.2 mol/L Li2SO4, 0.1 mol/L Tris-HCl pH 8.5, 20°C.
For data set [3] the target is unchanged. The experiment in a line: crystal structure; PolB with 4 mmol/L 5-Br dUMP; 1.4 mol/L sodium acetate, 0.1 mol/L sodium cacodylate pH 6.5, 20°C.
The target of data set [4] is T2, ThyX (Streptomyces asoensis, UniProt M1ETU3).
T2 construct: gene thyX_2; recombinant
T2 sequence (M1ETU3 1-246): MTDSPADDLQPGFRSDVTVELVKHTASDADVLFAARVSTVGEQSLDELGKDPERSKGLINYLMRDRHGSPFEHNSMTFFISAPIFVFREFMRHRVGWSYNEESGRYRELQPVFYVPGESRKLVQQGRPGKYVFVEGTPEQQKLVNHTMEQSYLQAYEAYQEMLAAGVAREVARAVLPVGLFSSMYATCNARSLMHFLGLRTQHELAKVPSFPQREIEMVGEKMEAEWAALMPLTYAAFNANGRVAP
Put plainly: LC-MS methylation assay. The data set is classed as biochemical. The conditions noted are these: NADPH, CH2H4folate; 50 mmol/L Tris-HCl pH 8.0.

For data set [5], the target named is T3, PolB (Streptomyces asoensis, UniProt C1IC19).
T3 construct: N-terminal His6-tagged, expressed in E. coli BL21(DE3); FAD-containing; homotetramer
The experiment in a line: crystal structure. The data set is classed as binding.

Substrate in data set [6]: O=c1ccn([C@H]2C[C@H](O)[C@@H](COP(=O)(O)O)O2)c(=O)[nH]1
The experiment in a line: methylation kinetics. The data set is classed as biochemical, Streptomyces asoensis. The following applies: NADPH and CH2H4folate co-substrates, assay buffer 50 mmol/L Tris-HCl pH 8.0.

Substrate in data set [7]: O=c1ccn([C@@H]2O[C@H](COP(=O)(O)O)[C@@H](O)[C@H]2O)c(=O)[nH]1
The experiment in a line: methylation kinetics. In kind it is biochemical, Streptomyces asoensis. The conditions noted are these: NADPH and CH2H4folate co-substrates, assay buffer 50 mmol/L Tris-HCl pH 8.0.

T1 sequence (D9X6S9 entry or part of it): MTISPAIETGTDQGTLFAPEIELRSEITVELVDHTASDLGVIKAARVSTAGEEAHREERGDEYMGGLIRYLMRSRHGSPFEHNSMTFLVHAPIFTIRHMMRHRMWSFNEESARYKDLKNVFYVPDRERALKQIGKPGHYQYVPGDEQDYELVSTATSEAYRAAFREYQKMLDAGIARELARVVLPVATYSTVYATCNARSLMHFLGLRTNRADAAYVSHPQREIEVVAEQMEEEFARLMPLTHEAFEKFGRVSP

Consider `O=c1ccn([C@@H]2O[C@H](COP(=O)(O)O)[C@@H](O)[C@H]2O)c(=O)[nH]1` [UMP], for which the LC-MS methylation assay entry in data set [1] was “SVIThyX2 was able to catalyze the methylation for both UMP and dUMP”. Turning to “PolB from S. cacaoi (UMP C-5 methylase with thymidylate synthase activity) (enzyme)”, the stoichiometry N in data set [2] and in data set [3] was 4 each time. Turning to `O=c1ccn([C@H]2C[C@H](O)[C@@H](COP(=O)(O)O)O2)c(=O)[nH]1` [dUMP], the LC-MS methylation assay entry in data set [1] was “SVIThyX2 was able to catalyze the methylation for both UMP and dUMP”; in data set [4], “recombinant S. cacaoi ThyX could catalyze the methylation of dUMP but not UMP”.

For `O=c1[nH]c(=O)n([C@H]2C[C@H](O)[C@@H](COP(=O)(O)O)O2)cc1Br` [5-Br dUMP], the crystal structure result in data set [5] (2.28 Å, substrate analog in active site, stacked on FAD isoalloxazine) was “structures in complex with substrate analogs 5-Br dUMP and 5-Br UMP”. As to `O=c1[nH]c(=O)n([C@@H]2O[C@H](COP(=O)(O)O)[C@@H](O)[C@H]2O)cc1Br` [5-Br UMP], the crystal structure entry in data set [5] (1.76 Å, substrate analog in active site) was “structures in complex with substrate analogs 5-Br dUMP and 5-Br UMP”. On to `Cc1cc2nc3c(=O)[nH]c(=O)nc-3n(C[C@H](O)[C@H](O)[C@H](O)COP(=O)(O)OP(=O)(O)OC[C@H]3O[C@@H](n4cnc5c(N)ncnc54)[C@H](O)[C@@H]3O)c2cc1C` [FAD], for which, in data set [5] (bound flavin in the 5-Br dUMP complex), the crystal structure was 5-Br dUMP poses strong π-π interaction with the isoalloxazine moiety of FAD.

B1: PolB (Streptomyces asoensis) (protein)
chain: MESPRIELRSDITVELVDSSASDLAVVKAARVSTAGEDANDELYDGGSTRGLIRYLMRSRHGSPFEHNSMTFLVRAPIFTVRHLMRHRTWSFNEESARYREVGAAFYVPDATRLLRQEGKPGDYRYVGGSTDDHQQVVRSATRAYEVAFEEYQRLLDSGIAREIARLVLPVSTYSVLYATCNARALMHFLSLRTHRPDAAYVSHPQREIEMVAEQMETAWAKLMPVTHEAFTAFGRVSP
notes: N-terminal His6-tagged, expressed in E. coli BL21(DE3); FAD-containing; homotetramer
As to B1, in data set [6], the Km came to 12.96 ± 0.89 µM and the kcat was found to be 0.029 ± 0.00083 s⁻¹. Also, in data set [7], the Km was found to be 19.48 ± 4.15 µM and the kcat worked out at 0.0515 ± 0.00283 s⁻¹.

What is called stoichiometry N is a count of units in the complex or per binding partner. Broadly, the Km is the substrate concentration at which the rate is half of its maximum. A word on the kcat: it is the maximal rate divided by the concentration of active sites.
